The values that follow come from ChEMBL document CHEMBL2203200, “Synthesis and antitrypanosomal activity of new 6,6,7-trisubstituted thiopyrano[2,3-d][1,3]thiazoles” (Bioorg Med Chem Lett, 2012).

Structures are written as SMILES.

The test system of assay [1] is Trypanosoma brucei brucei. Nature of the assay: Antimicrobial activity against bloodstream forms of Trypanosoma brucei brucei 90-13 at 1 ug/ml after 72 hrs by resazurin assay. In kind it is functional. Particulars: 90-13, 72 h. (Resazurin is reduced to fluorescent resorufin, in cell work by metabolically active cells.)
For assay [2], the system named is Trypanosoma brucei brucei. The assay is described as follows: Antimicrobial activity against bloodstream forms of Trypanosoma brucei brucei 90-13 at 10 ug/ml after 72 hrs by resazurin assay. The class given is functional. As to conditions: 90-13, 72 h.
Assay [3] has as its system Trypanosoma brucei gambiense. Nature of the assay: Antimicrobial activity against bloodstream forms of Trypanosoma brucei gambiense Feo after 72 hrs by resazurin assay. The class given is functional, organism-based.
The test system of assay [4] is Trypanosoma brucei brucei. Nature of the assay: Antimicrobial activity against bloodstream forms of Trypanosoma brucei brucei 90-13 after 72 hrs by resazurin assay. In kind it is functional, organism-based. Particulars: 90-13, 72 h.
The test system of assay [5] is Trypanosoma brucei gambiense. Nature of the assay: Antimicrobial activity against bloodstream forms of Trypanosoma brucei gambiense Feo at 1 ug/ml after 72 hrs by resazurin assay. In kind it is functional.
Assay [6] concerns Trypanosoma brucei gambiense. The assay is described as follows: Antimicrobial activity against bloodstream forms of Trypanosoma brucei gambiense Feo at 10 ug/ml after 72 hrs by resazurin assay. In kind it is functional.

Broadly, the inhibition is the change of the read-out against control, counted positive when it falls. By IC50 is commonly meant the concentration that inhibits the measured activity by half. A lower IC50 goes with inhibition by little substance. In assay [1], `COc1ccc([C@H]2c3sc(=O)[nH]c3SC[C@]23CC(=O)N(c2ccc(Cl)cc2)C3=O)cc1OC` (relative stereo) yielded an inhibition at 1 µg/mL of 82.4%. Also, the inhibition at 10 µg/mL in assay [2] is 93.6%. In addition, the IC50 in assay [3] is 423 nM; in assay [4], 262 nM.

`CCN(CC)c1ccc([C@H]2c3sc(=O)[nH]c3SC[C@]23CC(=O)N(c2ccc(Cl)cc2)C3=O)cc1` (relative stereo) displayed an inhibition at 1 µg/mL in assay [1] of 21.1%. Besides, in assay [2], the inhibition at 10 µg/mL is 98.2%. Besides, the values for the IC50 in assay [3] and in assay [4] were 3620 nM and 2400 nM, respectively.

`CN(C)c1ccc([C@H]2c3sc(=O)[nH]c3SC[C@]23CC(=O)N(c2ccc(Cl)cc2)C3=O)cc1` (relative stereo): in assay [1], the inhibition at 1 µg/mL was 36.8%. Also, 10 µg/mL produced 98.2% inhibition in assay [2]. Also, the IC50 in assay [3] was 1470 nM; in assay [4] it was 1280 nM.

Take `O=C1C[C@]2(CSc3[nH]c(=O)sc3[C@@H]2c2ccccc2O)C(=O)N1c1ccc(Cl)cc1` (relative stereo): the inhibition at 1 µg/mL is 0.9% in assay [5] and 13.4% in assay [1]. In addition, the results for the inhibition at 10 µg/mL in assay [6] and in assay [2] were 19.3% and 11.5%, respectively.

With `O=C1C[C@]2(CSc3[nH]c(=O)sc3[C@@H]2c2ccccc2O)C(=O)N1c1ccc(O)cc1` (relative stereo), the values for the inhibition at 1 µg/mL in assay [5] and in assay [1] were less than 5% and 7%, respectively. Moreover, the inhibition at 10 µg/mL in assay [6] is 15.4%; in assay [2], 18.5%.

For `Cc1cccc(N2C(=O)C[C@]3(CSc4[nH]c(=O)sc4[C@@H]3c3ccccc3O)C2=O)c1` (relative stereo), the inhibition at 1 µg/mL was less than 5% in assay [5] and 5.5% in assay [1]. Also, the values for the inhibition at 10 µg/mL in assay [6] and in assay [2] were 15.3% and 24.5%, respectively.

For `COc1cc([C@H]2c3sc(=O)[nH]c3SC[C@@]2(CC(=O)O)C(=O)O)ccc1OCc1ccccc1` (relative stereo), the inhibition at 1 µg/mL in assay [1] amounted to 18.1%. The inhibition at 10 µg/mL in assay [2] is less than 5%.

On to `COc1cc([C@H]2c3sc(=O)[nH]c3SC[C@@]2(CC(=O)O)C(=O)O)ccc1OC(F)F` (relative stereo), for which the inhibition at 1 µg/mL in assay [1] was 11.3%. The inhibition at 10 µg/mL in assay [2] was less than 5%.

For `CN(C)c1ccc([C@H]2c3sc(=O)[nH]c3SC[C@@]2(CC(=O)O)C(=O)O)cc1` (relative stereo), the inhibition at 1 µg/mL in assay [1] turned out to be 5.3%. Besides, the inhibition at 10 µg/mL in assay [2] is less than 5%.

`CCN(CC)c1ccc([C@H]2c3sc(=O)[nH]c3SC[C@@]2(CC(=O)O)C(=O)O)cc1` (relative stereo) displayed an inhibition at 1 µg/mL in assay [1] of less than 5%. Moreover, the inhibition at 10 µg/mL in assay [2] was 5.6%.

With `COc1ccc([C@H]2c3sc(=O)[nH]c3SC[C@]23CC(=O)N(c2ccc(Cl)cc2)C3=O)cc1` (relative stereo), the values for the inhibition at 1 µg/mL in assay [5] and in assay [1] were 2.3% and 10.6%, respectively. The inhibition at 10 µg/mL in assay [6] was determined as 9.8%; in assay [2], 13%.

As to `N=C(N)c1ccc(OCCCCCOc2ccc(C(=N)N)cc2)cc1` [PENTAMIDINE], the IC50 in assay [3] was determined as 5.2 nM; in assay [4] it was 3.2 nM.
